Holding throughout (type): in vivo, mice (ddY, male)
In one data set the test system is mice. The experiment in a line: Acute toxicity test (oral, mortality 1 week after administration). On the procedure:
(§1) A test compound was suspended in olive oil and administered orally to mice (ddY mice,.male., 23±2 g, n=5 or 6). The actute toxicity value (LD50) was determined from the mortality 1 week after the administration.

Experiment in data set [1]: as above
Particulars: mouse, in vivo, mice, in olive oil. On the procedure:
as §1

Data set [2] deals with acute liver injury induced by carbon tetrachloride. The experiment in a line: Protective effect on acute liver injury induced by carbon tetrachloride (mice, oral): plasma GPT activity and BSP retention. Particulars: 6 h before CCl4 (0.05 ml/kg p.o.); for GPT activity: plasma; for Retained BSP: plasma 30 min after BSP 75 mg/kg i.v. As to the method: 1. Protective Effect on Acute Liver Injury Induced by Carbon Tetrachloride
A test compound was dissolved or suspended in olive oil and administered orally to mice (ddY mice, .male., 23±2 g, n=5). After 6 hours, carbon tetrachloride (0.05 ml/kg) was administered orally. 24 Hours after the administration of carbon tetrachloride, BSP (sodium sulfobromophthalein; 75 mg/kg) was administered intravenously. Thirty minutes later, the cardiac blood was collected, and GPT (glutamic-pyruvic transaminase) activity and the retention rate of BSP in the plasma were measured.

For the molecule `CCOC(=O)C[N+](C)=c1sccs1.[Cl-]` [Compound No. 2, N-(1,3-dithiol-2-ylidene)-N-methyl-N-ethoxycarbonylmethylammonium chloride], in the data set on mice, the “acute toxicity (in words)” value is recorded as “extremely low toxicity”. In addition, the LD50 at 168 h in data set [1] was ≥ 1500 mg/kg. In addition, in data set [2] (1 mg/kg), the GPT activity was determined as 3190 ± 412 Karmen units and the “Retained BSP” value was found to be 57.4 ± 12.3 µg/mL. In addition, in data set [2] (5 mg/kg), the GPT activity is 192 ± 84 Karmen units and the “Retained BSP” value amounted to 17.1 ± 1.4 µg/mL.
For the molecule `CN1CC[N+](=c2sccs2)CC1.[O-][Cl+3]([O-])([O-])[O-]` [Compound No. 31, 1-(1,3-dithiol-2-ylidene)-4-methylpiperazinium perchlorate], the “acute toxicity (in words)” value in the data set on mice is “extremely low toxicity”. Further, the LD50 at 168 h in data set [1] was ≥ 1500 mg/kg. Also, in data set [2] (1 mg/kg), the GPT activity stood at 523 ± 111 Karmen units and the “Retained BSP” value turned out to be 20.3 ± 3.4 µg/mL. Moreover, in data set [2] (5 mg/kg), the GPT activity is 148 ± 51 Karmen units and the “Retained BSP” value was 12.6 ± 0.6 µg/mL.
With `CCOC(=O)C1CCC[N+]1=c1sccs1.[O-][Cl+3]([O-])([O-])[O-]` (stereo not drawn) [Compound No. 41, 1-(1,3-dithiol-2-ylidene)-2-ethoxycarbonyl pyrrolidinium perchlorate], the “acute toxicity (in words)” value with mice is on record as “extremely low toxicity”. In addition, the LD50 at 168 h in data set [1] is ≥ 1500 mg/kg. In data set [2] (1 mg/kg), the GPT activity came to 405 ± 73 Karmen units and the “Retained BSP” value stood at 26.5 ± 3.1 µg/mL. In data set [2] (5 mg/kg), the GPT activity was found to be 165 ± 21 Karmen units and the “Retained BSP” value turned out to be 17.9 ± 2.0 µg/mL.
As to `CCOC(=O)C1CCC[N+](=c2sccs2)C1.[I-]` (stereo not drawn) [Compound No. 55, 1-(1,3-dithiol-2-ylidene)-3-ethoxycarbonylpiperidinium iodide], in the data set with mice, the “acute toxicity (in words)” value is recorded as “extremely low toxicity”. Moreover, the 50% lethal dose (LD50) at 168 h in data set [1] is ≥ 1500 mg/kg. In data set [2] (1 mg/kg), the GPT activity is on record as 2981 ± 169 Karmen units and the “Retained BSP” value is 83.9 ± 14.1 µg/mL. In addition, in data set [2] (5 mg/kg), the GPT activity is given as 361 ± 49 Karmen units and the “Retained BSP” value worked out at 18.3 ± 4.4 µg/mL.
`CCOC(=O)C1CC[N+](=c2sccs2)CC1.[O-][Cl+3]([O-])([O-])[O-]` (stereo not drawn) [Compound No. 56, 1-(1,3-dithiol-2-ylidene)-4-ethoxycarbonylpiperidinium perchlorate]: the “acute toxicity (in words)” value with mice is “extremely low toxicity”. Moreover, in data set [1], the LD50 at 168 h was ≥ 1500 mg/kg. In addition, the GPT activity in data set [2] (1 mg/kg) is 2713 ± 147 Karmen units; in data set [2] (5 mg/kg), 216 ± 32 Karmen units. The “Retained BSP” value in data set [2] (1 mg/kg) was determined as 76.6 ± 13.1 µg/mL; in data set [2] (5 mg/kg), 21.0 ± 13.4 µg/mL.
On to `N#CC1CC[N+](=c2sccs2)CC1.[O-][Cl+3]([O-])([O-])[O-]` (stereo not drawn) [Compound No. 59, 1-(1,3-dithiol-2-ylidene)-4-cyanopiperidinium perchlorate], for which, in data set [2] (1 mg/kg), the GPT activity amounted to 2991 ± 382 Karmen units and the “Retained BSP” value turned out to be 110.1 ± 27.3 µg/mL. Further, in data set [2] (5 mg/kg), the GPT activity is 763 ± 118 Karmen units and the “Retained BSP” value amounted to 49.1 ± 8.1 µg/mL.
As for `OC1CC[N+](=c2sccs2)CC1.[O-][Cl+3]([O-])([O-])[O-]` (stereo not drawn) [Compound No. 60, 1-(1,3-dithiol-2-ylidene)-4-hydroxypiperidinium perchlorate], in data set [2] (1 mg/kg), the GPT activity is recorded as 1321 ± 197 Karmen units and the “Retained BSP” value came to 63.4 ± 10.9 µg/mL. Further, in data set [2] (5 mg/kg), the GPT activity is 131 ± 10 Karmen units and the “Retained BSP” value stood at 19.1 ± 2.1 µg/mL.
With `CC1CC(C)C[N+](=c2sccs2)C1.[I-]` (stereo not drawn) [Compound No. 67, 1-(1,3-dithiol-2-ylidene)-3,5-dimethylpiperidinium iodide], the GPT activity in data set [2] (1 mg/kg) turned out to be 2718 ± 431 Karmen units; in data set [2] (5 mg/kg), 372 ± 27 Karmen units. Moreover, the “Retained BSP” value came to 111.4 ± 17.1 µg/mL in data set [2] (1 mg/kg) and 21.3 ± 4.0 µg/mL in data set [2] (5 mg/kg).

The values are drawn from patent US4737494A, “1,3-dithiole derivatives and pharmaceutical compositions” (priority 1984, dated 1988).
